Laboratory results taken from paper PMC3511402, “Structural and Biochemical Studies on ATP Binding and Hydrolysis by the Escherichia coli RNA Chaperone Hfq” (PLoS ONE, 2012).

Assays:
[1] = target: T1, full length E. coli Hfq (Escherichia coli, UniProt P0A6X3); assay: EMSA competition with […]'-labelled poly(A)[…] RNA; assay type: binding; conditions: 5 nM poly(A)27, 40 nM Hfq hexamer, pH 7.5, 2 mM MgOAc, room temperature; distal site competition
T1 construct: full length, no added His tag (native histidines); plasmid pUH5 in E. coli AM111F' (printed for the ATPase preparations); hexamer
T1 sequence (P0A6X3 2-102): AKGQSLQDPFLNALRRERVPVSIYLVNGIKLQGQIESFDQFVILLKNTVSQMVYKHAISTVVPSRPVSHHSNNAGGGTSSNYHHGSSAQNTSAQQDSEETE

[2] = target: T2, Hfq65 (Escherichia coli, UniProt P0A6X3); assay: X-ray crystal structure, […] Å; assay type: binding; conditions: distal-face R-sites, four of six sites occupied; ATP 1:1 per subunit; Hepes pH ~7.5
T2 construct: gene hfq; C-terminally truncated, aa 1-65; plasmid pUHfq65 expressed in E. coli hfq- strain AM111F'; untagged; hexamer
T2 sequence (P0A6X3 1-65): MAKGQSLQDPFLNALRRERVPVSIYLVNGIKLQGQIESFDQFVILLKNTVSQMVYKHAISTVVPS

- % RNA released at 10 mM ATP [1]: ~ 50%
Compound: Nc1ncnc2c1ncn2[C@@H]1O[C@H](COP(=O)(O)OP(=O)(O)OP(=O)(O)O)[C@@H](O)[C@H]1O [ATP]
- X-ray crystal structure, 2.15 Å [2]: electron density corresponding to the ATP molecules was observed in four out of six R-sites
